Source: PMC9456463, “Intelligent Drug Delivery by Peptide-Based Dual-Function Micelles” (International Journal of Molecular Sciences, 2022)

System: 4T1 mouse breast cancer cell xenografted model
Experiment: In vivo antitumor efficacy, 4T1 mouse breast cancer xenografted model
Conditions: BALB/c female mice, 4T1 tumor
Procedure: All animal experiments were performed complying with the guidelines for the care and use of laboratory animals of the Peking University Animal Study Committee’s requirements. Experimental procedures were carried out by a protocol approved for institutional animal care. A total of 24 BALB/c female mice (5–6 weeks) were used in this study. The PBS suspension containing 2.5 × 10^4 4T1 cells was injected subcutaneously into female BALB/c mice. […] The body weight and tumor volume of each mouse were measured at regular intervals to evaluate the antitumor effects and toxicity of different drugs. […] One mouse from each group was randomly selected, and its major organs and tumor tissues were collected, then Hematoxylin and Eosin (H&E) staining were utilized to evaluate the degree of apoptosis in mice.

COc1cccc2c1C(=O)c1c(O)c3c(c(O)c1C2=O)C[C@@](O)(C(=O)CO)C[C@@H]3O[C@H]1C[C@H](N)[C@H](O)[C@H](C)O1 [DOX, Doxorubicin]
body weight change during treatment (tail vein injection): decreased significantly | final tumor weight (tail vein injection on days 0, 4, 8, 12): 0.47 g | tumor volume increase after 14 days (tail vein injection on days 0, 4, 8, 12, group sacrificed on the 14th day): 11.03 fold | final tumor weight (tail vein injection on days 0, 4, 8, 12, listed as free DOX): 0.67 g
